The NIST ThermoML archive (doi:10.1016/j.tca.2010.09.010)
Numbers after ± are expanded uncertainties.

Settings: Crystal, TG

[Cd+2].[I-].[I-] [cadmium iodide (CdI2)]
Settings	vapor or sublimation pressure [kPa]
740 K	0.2888 ± 0.073
745 K	0.3252 ± 0.082
750 K	0.3668 ± 0.092
755 K	0.4124 ± 0.1
760 K	0.4631 ± 0.12
765 K	0.5198 ± 0.13
770 K	0.5826 ± 0.15
